These results are taken from article PMC3265362 (Biochemical Journal, 2008).

Where “and” joins values, the source holds several entries; their conditions need not be identical. Identical values can stand only once.

Assay [1] has as its target T1, human QR2 (Homo sapiens, UniProt P16083).
T1 sequence (P16083 1-231): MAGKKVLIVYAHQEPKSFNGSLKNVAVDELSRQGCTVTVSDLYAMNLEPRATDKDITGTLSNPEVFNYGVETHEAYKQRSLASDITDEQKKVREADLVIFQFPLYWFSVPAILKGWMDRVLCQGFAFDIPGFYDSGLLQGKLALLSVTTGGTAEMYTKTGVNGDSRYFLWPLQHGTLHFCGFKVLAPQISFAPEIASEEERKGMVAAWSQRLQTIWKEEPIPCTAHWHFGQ
As to the kind of experiment: ITC. The class given is binding. The following applies: for ΔG / −TΔS / ΔH: single-site binding model; for ΔH: 50 mM Hepes pH 7.5, 100 mM NaCl, 1 mM TCEP.

Assay [2] addresses T1, human QR2. Put plainly: Steady-state kinetics, mechanism of inhibition of QR2. The class given is biochemical. The conditions noted are these: fixed NMeH 100 μM, various menadione.
In assay [3] the target is T1, human QR2. The conditions noted are these: read-out: IC50 value, Mammalian cells; cytosolic fraction of mammalian cell lines overexpressing human QR2, dihydrobenzylnicotinamide as co-substrate; ref [37]; cited from earlier work.
For assay [4], the target named is T2, human QR2 (quinone reductase 2) (human), P16083.
T2 chain: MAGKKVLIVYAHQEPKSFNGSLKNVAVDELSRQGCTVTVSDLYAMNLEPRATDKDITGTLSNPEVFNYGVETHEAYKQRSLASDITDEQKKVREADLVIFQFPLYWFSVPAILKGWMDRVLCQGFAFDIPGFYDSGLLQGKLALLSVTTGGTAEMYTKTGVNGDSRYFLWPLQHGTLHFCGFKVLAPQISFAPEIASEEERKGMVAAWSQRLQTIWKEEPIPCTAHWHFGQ
Put plainly: crystal structure. The conditions noted are these: remark: other sources report otherwise.

`COc1ccc2[nH]c(I)c(CCNC(C)=O)c2c1` [2-Iodomelatonin]: in assay [1], the “h (Hill coefficient, a measure of the stoichiometry of binding)” value is reported as 0.8; the ΔG was -8.5 ± 0.38 kcal/mol; the “−TΔS” value is -0.65 ± 0.24 kcal/mol; the ΔH is -7.85 ± 0.62 kcal/mol. Also, in assay [1] (listed as 2-iodomelatonin), the ΔH is -7.85 kcal/mol.

In the case of `COc1ccc2[nH]cc(CCNC(C)=O)c2c1` [Melatonin], in assay [2], the “Ki (uncompetitive against menadione)” value is 92 µM and 91.6 ± 4.6 µM. In addition, in assay [1], the “h (Hill coefficient, a measure of the stoichiometry of binding)” value stood at 0.8; the ΔG is -8.07 ± 0.3 kcal/mol; the “−TΔS” value turned out to be 2.38 ± 0.11 kcal/mol; the ΔH is -10.45 ± 0.4 kcal/mol. The ΔH in assay [1] (listed as melatonin) was -10.45 kcal/mol.

What is called IC50 is the concentration that inhibits the measured activity by half. On to `CC(=O)NCCc1c[nH]c2ccc(O)cc12` [N-Acetyl-5-hydroxytryptamine], for which the IC50 in assay [3] was 99 ± 14 µM.

Take `Oc1ccc(/C=C/c2cc(O)cc(O)c2)cc1` [Resveratrol]: in assay [1], the “h (Hill coefficient, a measure of the stoichiometry of binding)” value turned out to be 0.9; the ΔG is -9.8 ± 0.50 kcal/mol; the “−TΔS” value came out at 5.01 ± 0.61 kcal/mol; the ΔH was -14.6 ± 0.15 kcal/mol.

B1: human QR2 (quinone reductase 2), P16083 1-231 (enzyme)
chain: MAGKKVLIVYAHQEPKSFNGSLKNVAVDELSRQGCTVTVSDLYAMNLEPRATDKDITGTLSNPEVFNYGVETHEAYKQRSLASDITDEQKKVREADLVIFQFPLYWFSVPAILKGWMDRVLCQGFAFDIPGFYDSGLLQGKLALLSVTTGGTAEMYTKTGVNGDSRYFLWPLQHGTLHFCGFKVLAPQISFAPEIASEEERKGMVAAWSQRLQTIWKEEPIPCTAHWHFGQ
One may read the stoichiometry N as the number of molecules, sites or subunits per partner or assembly. B1 yielded a stoichiometry N in assay [4] of 2.
